Measured values as given in US8871798B2, “Tricyclic pyridyl-vinyl pyrroles as PAR1 inhibitors” (Sanofi, priority 2010, dated 2014).

Biological target: T1, PAR1 (Homo sapiens, UniProt P25116)
T1 construct: endogenous in cells; host or cells: washed platelets from blood of healthy volunteers
T1 sequence (P25116 22-425): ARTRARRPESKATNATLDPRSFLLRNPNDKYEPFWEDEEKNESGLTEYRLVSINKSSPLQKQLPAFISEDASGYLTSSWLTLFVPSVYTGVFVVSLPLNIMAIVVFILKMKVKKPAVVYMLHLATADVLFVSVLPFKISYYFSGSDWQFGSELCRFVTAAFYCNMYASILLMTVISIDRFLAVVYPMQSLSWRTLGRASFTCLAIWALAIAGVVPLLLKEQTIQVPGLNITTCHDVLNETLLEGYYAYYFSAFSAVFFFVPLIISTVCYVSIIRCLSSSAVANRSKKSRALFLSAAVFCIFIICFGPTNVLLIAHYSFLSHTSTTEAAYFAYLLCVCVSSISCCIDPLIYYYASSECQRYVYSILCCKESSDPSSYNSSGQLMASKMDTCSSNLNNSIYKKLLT
Experiment: Inhibition of PAR1-mediated platelet aggregation induced by TRAP (thrombin receptor-activating peptide), washed platelets, 96-well format
Type: cell-based
Details: TRAP-induced aggregation of platelets from healthy volunteers; 30 min preincubation at RT; AUC of kinetics at 650 nm, 37° C., 20 minutes
Protocol: PAR1 Determination Method: Inhibition of PAR1-Mediated Platelet Aggregation
The pharmacological testing of the substances took place in platelet aggregation induced by TRAP (thrombin receptor-activating peptide) in 96-well format. For this purpose, blood was taken from healthy volunteers in 20 ml syringes containing 2 ml of 3.13% strength sodium citrate solution. After centrifugation at 150×g for 20 minutes, the platelet-rich plasma (PRP) was separated off and mixed with 1 μl of PGE1 solution (500 μg/ml in ethanol)/ml of PRP. Incubation at RT for 5 minutes was followed by centrifugation at 120×g for 15 minutes to remove the leukocytes. The leukocyte-free PRP was transferred in 5 ml portions into 15 ml PP tubes and centrifuged at 360×g for 15 minutes in order to pellet the platelets. The plasma was then decanted off and the platelet sediment from 5 ml of PRP was resuspended in 1 ml of Tyrode's (120 mM NaCl, 2.6 mM KCl, 12 mM NaHCO3, 0.39 mM NaH2PO4×H2O, 10 mM HEPES, 0.35% BSA (Bovine Serum Albumin), 5.5 mM glucose, pH 7.4) and adjusted with Tyrode's to a platelet count of 3×10^5/microliter (μl). 13 ml of this cell suspension were then mixed with 866 μl of 10 mM CaCl2 solution, and 120 μl thereof were pipetted into each well of a 96-well plate containing 15 μl of the substance to be tested. After incubation at RT in the dark for 30 minutes, 15 μl of a TRAP solution (70-100 μM) were added as agonist, and kinetics were recorded at 650 nm in a SpectraMax 340 at 37° C. for 20 minutes while shaking. The areas under the curves of negative control (Tyrode's/DMSO) and positive control (15 μl of agonist DMSO) were calculated and the difference was fixed as the 100% value. The substances to be tested were pipetted as serial dilutions in duplicate determination, the AUC was likewise determined for each substance concentration, and the % inhibition of the AUC compared with the control was calculated. On the basis of the % inhibition, the IC50 was calculated by nonlinear regression analysis according to the 4-parameter equation.

| Structure (SMILES) | IC50 [µM] |
| --- | --- |
| CN1C(=O)C2C(C1=O)C1COCCN1C2/C=C/c1ccc(-c2cccc(F)c2)cn1 (racemic) [13 (Fr. 3), 6-{(E)-2-[5-(3-Fluorophenyl)pyridin-2-yl]vinyl}-8-methylhexahydropyrrolo[3′,4′:3,4]pyrrolo[2,1-c][1,4]oxazine-7,9-dione] | 7.1 |
| CN1C(=O)[C@@H]2[C@H](C1=O)[C@H](/C=C/c1ccc(-c3cccc(C(F)(F)F)c3)cn1)N1CCCC[C@@H]21 (racemic) [Example 18, 2-Methyl-4-{(E)-2-[5-(3-trifluoromethylphenyl)pyridin-2-yl]vinyl}octahydropyrrolo[3,4-a]indolizine-1,3-dione] | 3.23 |
| CCN1C(=O)C2C(C1=O)C1CCCCN1C2/C=C/c1ccc(-c2cccc(F)c2)cn1 (racemic) [14 (Fr. 3), 2-Ethyl-4-{(E)-2-[5-(3-fluorophenyl)pyridin-2-yl]vinyl}octahydropyrrolo[3,4-a]indolizine-1,3-dione] | 3.68 |
| CN1C(=O)C2C(C1=O)C1C[C@H](O)CN1C2/C=C/c1ccc(-c2cccc(F)c2)cn1 (mixture of isomers) [11 (Fr. 2), (S)-4-{(E)-2-[5-(3-Fluorophenyl)pyridin-2-yl]vinyl}-7-hydroxy-2-methylhexahydropyrrolo[3,4-a]pyrrolizine-1,3-dione] | 15.8 |

Further lines, results first:

| IC50 [µM] | Structure (SMILES) |
| --- | --- |
| 4.09 | COc1ccccc1-c1ccc(/C=C/[C@H]2[C@H]3C(=O)N(C)C(=O)[C@H]3[C@@H]3CCCCN23)nc1 (racemic) [Example 19, 4-{(E)-2-[5-(2-Methoxyphenyl)pyridin-2-yl]vinyl}-2-methyloctahydropyrrolo[3,4-a]-indolizine-1,3-dione] |
| 0.26 | CN1C(=O)[C@@H]2[C@H](C1=O)[C@H](/C=C/c1ccc(-c3ccccc3Cl)cn1)N1CCCC[C@@H]21 (racemic) [Example 20, 4-{(E)-2-[5-(2-Chlorophenyl)pyridin-2-yl]vinyl}-2-methyloctahydropyrrolo[3,4-a]-indolizine-1,3-dione] |
